#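 Values below derive from 48-hour exposures of cells grown in 96-well plates, with endpoints linearly interpolated between the two concentrations bracketing the appropriate inhibition level. TGI: concentration producing complete growth inhibition.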
# Tests used:
# Experiment in all cases: NCI anticancer screen, dose series, 48 h
# 786-0 renal = system: 786-0 renal
# A498 renal = system: A498 renal
# A549 NSCLC = system: A549 NSCLC
# ACHN renal = system: ACHN renal
# CAKI-1 renal = system: CAKI-1 renal
# CCRF-CEM leukemia = system: CCRF-CEM leukemia
# COLO 205 colon = system: COLO 205 colon
# DLD-1 colon = system: DLD-1 colon
# DMS 114 small cell lung = system: DMS 114 small cell lung
# DMS 273 small cell lung = system: DMS 273 small cell lung
# EKVX NSCLC = system: EKVX NSCLC
# HCC-2998 colon = system: HCC-2998 colon
# HCT-116 colon = system: HCT-116 colon
# HCT-15 colon = system: HCT-15 colon
# HL-60(TB) leukemia = system: HL-60(TB) leukemia
# HOP-18 NSCLC = system: HOP-18 NSCLC
# HOP-62 NSCLC = system: HOP-62 NSCLC
# HOP-92 NSCLC = system: HOP-92 NSCLC
# HT29 colon = system: HT29 colon
# IGROV1 ovarian = system: IGROV1 ovarian
# K-562 leukemia = system: K-562 leukemia
# KM12 colon = system: KM12 colon
# KM20L2 colon = system: KM20L2 colon
# LOX IMVI melanoma = system: LOX IMVI melanoma
# LXFL 529 NSCLC = system: LXFL 529 NSCLC
# M14 melanoma = system: M14 melanoma
# M19-MEL melanoma = system: M19-MEL melanoma
# MALME-3M melanoma = system: MALME-3M melanoma
# MOLT-4 leukemia = system: MOLT-4 leukemia
# NCI-H226 lung = system: NCI-H226 lung
# NCI-H23 lung = system: NCI-H23 lung
# NCI-H460 lung = system: NCI-H460 lung
# NCI-H522 lung = system: NCI-H522 lung
# OVCAR-3 ovarian = system: OVCAR-3 ovarian
# OVCAR-4 ovarian = system: OVCAR-4 ovarian
# OVCAR-5 ovarian = system: OVCAR-5 ovarian
# OVCAR-8 ovarian = system: OVCAR-8 ovarian
# RPMI-8226 leukemia = system: RPMI-8226 leukemia
# RXF 393 renal = system: RXF 393 renal
# SF-268 CNS = system: SF-268 CNS
# SF-295 CNS = system: SF-295 CNS
# SF-539 CNS = system: SF-539 CNS
# SK-MEL-2 melanoma = system: SK-MEL-2 melanoma
# SK-MEL-28 melanoma = system: SK-MEL-28 melanoma
# SK-MEL-5 melanoma = system: SK-MEL-5 melanoma
# SK-OV-3 ovarian = system: SK-OV-3 ovarian
# SN12C renal = system: SN12C renal
# SNB-19 CNS = system: SNB-19 CNS
# SNB-75 CNS = system: SNB-75 CNS
# SNB-78 CNS = system: SNB-78 CNS
# SR leukemia = system: SR leukemia
# SW-620 colon = system: SW-620 colon
# TK-10 renal = system: TK-10 renal
# U251 CNS = system: U251 CNS
# UACC-257 melanoma = system: UACC-257 melanoma
# UACC-62 melanoma = system: UACC-62 melanoma
# UO-31 renal = system: UO-31 renal
# XF 498 CNS = system: XF 498 CNS
smiles,measurement,setting,value
COC1=CC(=O)c2c(cc3c(c2O)-c2c(OC)cc4cc5c(c(O)c4c2OC(=O)CC(C)(O)C3)C(=O)CC(C)(O)C5)C1=O (centres undefined),TGI,786-0 renal,7.72 µM
same,TGI,A498 renal,4.42 µM
same,TGI,A549 NSCLC,10.7 µM
same,TGI,ACHN renal,8.35 µM
same,TGI,CAKI-1 renal,5.87 µM
same,TGI,CCRF-CEM leukemia,6.59 µM
same,TGI,COLO 205 colon,3.17 µM
same,TGI,DLD-1 colon,9.01 µM
same,TGI,DMS 114 small cell lung,3.58 µM
same,TGI,DMS 273 small cell lung,5.31 µM
same,TGI,EKVX NSCLC,5.58 µM
same,TGI,HCC-2998 colon,3.21 µM
same,TGI,HCT-116 colon,7.58 µM
same,TGI,HCT-15 colon,4.36 µM
same,TGI,HL-60(TB) leukemia,5.56 µM
same,TGI,HOP-18 NSCLC,5.39 µM
same,TGI,HOP-62 NSCLC,2.76 µM
same,TGI,HOP-92 NSCLC,4.12 µM
same,TGI,HT29 colon,6.59 µM
same,TGI,IGROV1 ovarian,3.97 µM
same,TGI,K-562 leukemia,12.6 µM
same,TGI,KM12 colon,8.98 µM
same,TGI,KM20L2 colon,5.29 µM
same,TGI,LOX IMVI melanoma,2.94 µM
same,TGI,LXFL 529 NSCLC,4.6 µM
same,TGI,M14 melanoma,2.66 µM
same,TGI,M19-MEL melanoma,1.52 µM
same,TGI,MALME-3M melanoma,4.04 µM
same,TGI,MOLT-4 leukemia,6.67 µM
same,TGI,NCI-H226 lung,4.08 µM
same,TGI,NCI-H23 lung,2.46 µM
same,TGI,NCI-H460 lung,5.24 µM
same,TGI,NCI-H522 lung,2.67 µM
same,TGI,OVCAR-3 ovarian,2.15 µM
same,TGI,OVCAR-4 ovarian,10.3 µM
same,TGI,OVCAR-5 ovarian,4.27 µM
same,TGI,OVCAR-8 ovarian,6.49 µM
same,TGI,RPMI-8226 leukemia,5.85 µM
same,TGI,RXF 393 renal,3.89 µM
same,TGI,SF-268 CNS,9.26 µM
same,TGI,SF-295 CNS,3.48 µM
same,TGI,SF-539 CNS,3.67 µM
same,TGI,SK-MEL-2 melanoma,2.71 µM
same,TGI,SK-MEL-28 melanoma,4.36 µM
same,TGI,SK-MEL-5 melanoma,0.606 µM
same,TGI,SK-OV-3 ovarian,7.47 µM
same,TGI,SN12C renal,3.27 µM
same,TGI,SNB-19 CNS,4.13 µM
same,TGI,SNB-75 CNS,3.51 µM
same,TGI,SNB-78 CNS,7.12 µM
same,TGI,SR leukemia,5.07 µM
same,TGI,SW-620 colon,6.3 µM
same,TGI,TK-10 renal,14.2 µM
same,TGI,U251 CNS,9.92 µM
same,TGI,UACC-257 melanoma,5.34 µM
same,TGI,UACC-62 melanoma,2.57 µM
same,TGI,UO-31 renal,3.71 µM
same,TGI,XF 498 CNS,3.23 µM
C#CCn1c(=O)c2cccnc2n(CC#C)c1=O,TGI,786-0 renal,> 100 µM
same,TGI,A549 NSCLC,> 100 µM
same,TGI,ACHN renal,> 100 µM
same,TGI,CAKI-1 renal,> 100 µM
same,TGI,CCRF-CEM leukemia,> 100 µM
same,TGI,COLO 205 colon,> 100 µM
same,TGI,DLD-1 colon,> 100 µM
same,TGI,DMS 273 small cell lung,> 100 µM
same,TGI,HCC-2998 colon,> 100 µM
same,TGI,HCT-116 colon,> 100 µM
same,TGI,HCT-15 colon,> 100 µM
same,TGI,HL-60(TB) leukemia,> 100 µM
same,TGI,HOP-18 NSCLC,> 100 µM
same,TGI,HOP-62 NSCLC,> 100 µM
same,TGI,HOP-92 NSCLC,> 100 µM
same,TGI,HT29 colon,> 100 µM
same,TGI,KM12 colon,> 100 µM
same,TGI,LOX IMVI melanoma,> 100 µM
same,TGI,LXFL 529 NSCLC,> 100 µM
same,TGI,M14 melanoma,> 100 µM
same,TGI,MALME-3M melanoma,> 100 µM
same,TGI,MOLT-4 leukemia,> 100 µM
same,TGI,NCI-H226 lung,> 100 µM
same,TGI,NCI-H23 lung,> 100 µM
same,TGI,NCI-H460 lung,> 100 µM
same,TGI,NCI-H522 lung,> 100 µM
same,TGI,OVCAR-4 ovarian,> 100 µM
same,TGI,OVCAR-5 ovarian,> 100 µM
same,TGI,RPMI-8226 leukemia,> 100 µM
same,TGI,RXF 393 renal,> 100 µM
same,TGI,SF-268 CNS,> 100 µM
same,TGI,SF-295 CNS,> 100 µM
same,TGI,SK-MEL-2 melanoma,> 100 µM
same,TGI,SK-MEL-28 melanoma,> 100 µM
same,TGI,SK-MEL-5 melanoma,> 100 µM
same,TGI,SK-OV-3 ovarian,> 100 µM
same,TGI,SN12C renal,> 100 µM
same,TGI,SNB-19 CNS,> 100 µM
same,TGI,SNB-75 CNS,> 100 µM
same,TGI,SNB-78 CNS,> 100 µM
same,TGI,SR leukemia,> 100 µM
same,TGI,SW-620 colon,> 100 µM
same,TGI,TK-10 renal,> 100 µM
same,TGI,U251 CNS,> 100 µM
same,TGI,UACC-257 melanoma,> 100 µM
same,TGI,XF 498 CNS,> 100 µM
